Target: T1, Met30 (Saccharomyces cerevisiae, UniProt P39014)
T1 sequence (P39014 1-640): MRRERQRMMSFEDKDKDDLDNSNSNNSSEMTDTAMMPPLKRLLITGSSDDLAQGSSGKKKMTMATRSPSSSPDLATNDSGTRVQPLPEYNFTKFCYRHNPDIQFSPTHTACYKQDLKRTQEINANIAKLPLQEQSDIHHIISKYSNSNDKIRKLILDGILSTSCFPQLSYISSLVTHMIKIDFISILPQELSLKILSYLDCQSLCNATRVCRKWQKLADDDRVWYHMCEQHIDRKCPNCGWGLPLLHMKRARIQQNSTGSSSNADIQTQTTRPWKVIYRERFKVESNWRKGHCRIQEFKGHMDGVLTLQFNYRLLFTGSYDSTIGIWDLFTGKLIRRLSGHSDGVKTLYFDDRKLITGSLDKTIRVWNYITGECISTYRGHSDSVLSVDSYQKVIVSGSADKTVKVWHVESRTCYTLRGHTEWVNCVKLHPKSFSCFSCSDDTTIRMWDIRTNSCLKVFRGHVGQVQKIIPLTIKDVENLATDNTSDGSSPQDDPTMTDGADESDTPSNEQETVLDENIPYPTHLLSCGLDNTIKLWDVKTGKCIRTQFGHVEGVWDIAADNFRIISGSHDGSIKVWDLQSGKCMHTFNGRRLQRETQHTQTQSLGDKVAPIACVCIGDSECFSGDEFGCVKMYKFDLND
Assay: DARTS, thermolysin or subtilisin protection, immunoblot
Type: biochemical
Settings: yeast lysate (Skp1 present); also in vitro translated Met30

O=C1c2ccccc2-c2nc3nonc3nc21 [SMER3]
DARTS, thermolysin or subtilisin protection, immunoblot: we observed SMER3-dependent protection of Met30

— paper PMC2902569 (Nature biotechnology, 2010)
